Data on 12 compounds can be found in patent US20240228476A1, “INHIBITORS OF PROTEIN TYROSINE PHOSPHATASE, COMPOSITIONS, AND METHODS OF USE” (BRISTOL-MYERS SQUIBB COMPANY, priority 2022, published 2024).

The structures appear in SMILES notation.

The subject of one test is B16-F10 cells. Briefly: Cell proliferation assay (CellTiter-Glo) in B16-F10 cells with IFN-gamma. As to conditions: 120 h, mouse IFN-gamma 10 ng/mL, read-out: PTPN2 Prolif 5d B16F10 EC50. The test is classed as cell-based. As for the experimental part: B16-F10 cells (ATCC, Manassas, VA, #CRL-6475) were cultured in DMEM growth medium (ThermoFisher Scientific, Waltham, MA, #11995-040) supplemented with 10% heat inactivated FBS (ThermoFisher Scientific, #16140-071) and 1% pen/strep (ThermoFisher Scientific, #15140-122). The cells were seeded into two white opaque 384-well tissue culture treated microplates (PerkinElmer, Waltham, MA, #6007688) at a density of 100 cells/well in 20 uL total volume and incubated overnight at 37 C and 5% CO2. 30 nL of compounds dissolved in DMSO were then transferred from a source plate into target wells with the Echo650 acoustic liquid handler (Beckman Coulter, Indianapolis, IN). Negative control wells received 30 nL of DMSO only (0.15% final concentration). Plates were returned to the incubator for 1 hour and then cells treated with either 5 uL of growth medium or 5 uL of growth medium containing 50 ng/ml of recombinant mouse IFN-gamma protein (R&D Systems, Minneapolis, MN, #485-MI/CF, 10 ng/mL final concentration) using the Assist automated pipetting platform (INTEGRA Biosciences, Hudson, NH). Plates were incubated at 37 C for 4 days and cell proliferation assayed with the CellTiter-Glo reagent (Promega, Madison, WI, #G7573, 25 uL per well). […] Off-target compound mediated cytotoxicity was identified by checking for growth inhibition in the absence of IFNg.
(In general: ATP-based viability assays read luminescence as a measure of living cells.)

For another test, the system named is phospho-STAT1 (Tyr701). Briefly: Phospho-STAT1 (Tyr701) HTRF assay in B16-F10 cells. Conditions: mouse IFN-gamma 100 ng/ml, 1 hour, read-out: pSTAT1 HTRF B16 EC50. The class given is cell-based. As for the experimental part: B16-F10 cells (ATCC, Manassas, VA, #CRL-6475) were cultured in DMEM growth medium (ThermoFisher Scientific, Waltham, MA, #11995-040) supplemented with 10% heat inactivated FBS (ThermoFisher Scientific, #16140-071) and 1% pen/strep (ThermoFisher Scientific, #15140-122). The cells were seeded into a white opaque 384-well tissue culture treated microplate (PerkinElmer, Waltham, MA, #6007688) at a density of 10,000 cells/well in 20 uL total volume and incubated overnight at 37 C and 5% CO2. 30 nL of compounds dissolved in DMSO were then transferred from a source plate into target wells with the Echo650 acoustic liquid handler (Beckman Coulter, Indianapolis, IN). Negative control wells received 30 nL of DMSO only (0.15% final concentration). Plates were returned to the incubator for 1 hour and then cells treated with either 5 uL of growth medium or 5 uL of growth medium containing 500 ng/ml of recombinant mouse IFN-gamma protein (R&D Systems, Minneapolis, MN, #485-MI/CF, 100 ng/ml final concentration) using the Assist automated pipetting platform (INTEGRA Biosciences, Hudson, NH). Plates were incubated at 37 C for 1 hour and assayed for phosphorylated STAT1 protein levels with the phospho-STAT1 (Tyr701) HTRF kit (Cisbio, Bedford, MA, #63ADK026PEH) according to manufacturer's instructions. HTRF signal intensity was collected with the En Vision 2105 plate reader (PerkinElmer) 24 hours later and analyzed with the Dotmatics software platform to calculate compound IC50 values.
A general note: In TR-FRET formats the signal depends on donor and acceptor labels being close together.

For test [1], the target named is T1, PTPN2 (Homo sapiens, UniProt P17706).
T1 sequence (P17706 1-415): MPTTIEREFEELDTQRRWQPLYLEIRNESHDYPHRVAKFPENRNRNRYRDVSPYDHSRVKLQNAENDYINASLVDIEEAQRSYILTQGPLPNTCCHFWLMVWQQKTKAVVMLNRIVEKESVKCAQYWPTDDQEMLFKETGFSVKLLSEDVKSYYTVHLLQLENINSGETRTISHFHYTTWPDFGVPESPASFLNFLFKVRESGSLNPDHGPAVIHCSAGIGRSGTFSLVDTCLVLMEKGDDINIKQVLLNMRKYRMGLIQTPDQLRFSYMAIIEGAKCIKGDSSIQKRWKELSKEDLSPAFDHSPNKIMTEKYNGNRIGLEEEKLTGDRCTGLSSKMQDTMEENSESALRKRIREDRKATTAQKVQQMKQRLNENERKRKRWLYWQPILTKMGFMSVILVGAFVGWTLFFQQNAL
Briefly: PTPN2 biochemical assay (PhosphoSens, substrate AQT0264). As to conditions: PhosphoSens substrate AQT0264 20 μM, room temperature; read-out: PTPN2 BCHEM IC50. The procedure: A PhosphoSens® kinase assay was performed as described by the vendor (AssayQuant Technologies, Marlborough, MA). Briefly, 1000× solutions of compounds were prepared in DMSO via serial dilution of the 10 mM DMSO stocks using 3-fold intervals in a 384-well reagent plate. 50 nL of the compound dilution series was then added to the corresponding wells of a 384-well assay plate. 40 mL of 1.25× substrate (AQT0264) in 1× assay buffer (50 mM HEPES pH 7.5, 500 μM EGTA, […] MgCl2, 0.01% Brij-35, 1% Glycerol, 1 mM DTT, and 0.2 mg/mL BSA) was transferred to each well of the assay plate to achieve a final substrate concentration of 20 μM. Finally, […] of 5×PTPN2 enzyme stock was added to each well of the assay plate for a final enzyme concentration of […]. Reaction progress curves were collected by sampling fluorescence intensity at the excitation wavelength 360 nm (λex360) and emission wavelength 480 nm (λem480) every 71 seconds for one hour using a Synergy H4 plate reader (BioTek Instruments/Agilent Technologies, Winooski, VT) at room temperature.
(§1) For IC50 data, High DDT concentration and/or DiFMUP substrate assays were used; a skilled artisan may use either assay.

Test [2] has as its target T1, PTPN2. Briefly: Phosphatase activity assay using DiFMUP as substrate. The test is classed as biochemical. Set-up: purchased MilliporeSigma SRP5075. As to conditions: 10 mM DTT, PTPN2 0.15 nM, room temperature, read-out: PTPN2 BCHEM DIFMUP IC50. The procedure:
The PTPN2 biochemical assay was performed as follows, a 5× stock solution of human PTPN2 (SRP5075, MilliporeSigma, Burlington, MA) and a 1.25× stock solution of DiFMUP (D6567, ThermoFisher Scientific, Waltham, MA), were prepared in 1× reaction buffer consisting of 50 mM HEPES, pH 7.4, 1 mM EDTA, 150 mM NaCl, 0.2 mg/mL BSA, 100 U/mL catalase and 10 mM DTT. […] of the DiFMUP substrate solution, for a final concentration of […] DiFMUP substrate, was added to a Corning 3574 384-well, white, non-binding surface microtiter plate containing […] of serially diluted test compounds prepared in DMSO. The reactions were started with the addition of […] of the enzyme solution, for a final PTPN2 concentration of 0.15 nM, and monitored every 105 seconds for 60 minutes at λEX 360/λEM 460 in a BioTek Synergy HTX plate reader (Agilent Technologies, Santa Clara, CA) at room temperature. The initial linear portions of the progress curves were fit according to a linear equation to yield the slopes and converted to % inhibition based on a value of 100% activity for the no inhibitor treated control. IC50 values of each compound were obtained by fitting the % inhibition-compound concentration curves using Dotmatics software (Dotmatics, Bishops Stortford, Hertfordshire, England)
as §1

On to `COc1ncc(C)nc1NCc1cc(O)c(N2CC(=O)NS2(=O)=O)c(F)c1` [EXAMPLE 20, 5-[2-fluoro-6-hydroxy-4-[[(3-methoxy-6-methyl-pyrazin-2-yl)amino]methyl]phenyl]-1,1-dioxo-1,2,5-thiadiazolidin-3-one], for which the EC50 in the test with B16-F10 cells and in the test on phospho-STAT1 (Tyr701) was greater than 15000 nM in each case. In addition, the IC50 (in general, the point on the concentration scale where inhibition reaches its midpoint) on PTPN2 [1] came to 70 nM; on PTPN2 [2], 11100 nM.
As for `COc1ncc(C)c(NCc2cc(O)c(N3CC(=O)NS3(=O)=O)c(F)c2)n1` [EXAMPLE 22, 5-[2-fluoro-6-hydroxy-4-[[(2-methoxy-5-methyl-pyrimidin-4-yl)amino]methyl]phenyl]-1,1-dioxo-1,2,5-thiadiazolidin-3-one], the EC50 (in general, the midpoint of the concentration-response curve) in the test with B16-F10 cells worked out at 10900 nM; in the test with phospho-STAT1 (Tyr701) it was 6800 nM. The values for the IC50 on PTPN2 [1] and at PTPN2 [2] were 20 nM and 50 nM, respectively.
On the same counts, the results for `Cc1cc(NCc2cc(O)c(N3CC(=O)NS3(=O)=O)c(F)c2)cc(C)n1` [EXAMPLE 2, 5-[4-[[(2,6-dimethyl-4-pyridyl)amino]methyl]-2-fluoro-6-hydroxy-phenyl]-1,1-dioxo-1,2,5-thiadiazolidin-3-one] are 6000 nM, 14000 nM, 10 nM and 50 nM.
Regarding `CC(C)(C)c1ccc(Oc2ccc(NCc3cc(O)c(N4CC(=O)NS4(=O)=O)c(F)c3)cn2)cc1` [EXAMPLE 31, 5-[4-[[[6-(4-tert-butylphenoxy)-3-pyridyl]amino]methyl]-2-fluoro-6-hydroxy-phenyl]-1,1-dioxo-1,2,5-thiadiazolidin-3-one], the EC50 in the test with B16-F10 cells and in the test with phospho-STAT1 (Tyr701) was greater than 15000 nM each time. Moreover, the IC50 is 20 nM at PTPN2 [1] and 60 nM on PTPN2 [2].
For `CN(C)c1ccc(NCc2cc(O)c(N3CC(=O)NS3(=O)=O)c(F)c2)cn1` [EXAMPLE 1, 5-[4-[[[6-(dimethylamino)-3-pyridyl]amino]methyl]-2-fluoro-6-hydroxy-phenyl]-1,1-dioxo-1,2,5-thiadiazolidin-3-one], the results for the half-maximal effective concentration (EC50) in the test on B16-F10 cells and with phospho-STAT1 (Tyr701) were 900 nM and 420 nM, respectively. In addition, the IC50 worked out at 20 nM on PTPN2 [1] and 130 nM on PTPN2 [2].
Taken in the same sequence, the figures for `O=C1CN(c2c(O)cc(CNc3cncc(-c4ccccc4)c3)cc2F)S(=O)(=O)N1` [EXAMPLE 12, 5-[2-fluoro-6-hydroxy-4-[[(5-phenyl-3-pyridyl)amino]methyl]phenyl]-1,1-dioxo-1,2,5-thiadiazolidin-3-one] were greater than 15000 nM, greater than 15000 nM, 20 nM and 100 nM.
In the case of `Cc1ncc(C)c(NCc2cc(O)c(N3CC(=O)NS3(=O)=O)c(F)c2)n1` [EXAMPLE 27, 5-[4-[[(2,5-dimethylpyrimidin-4-yl)amino]methyl]-2-fluoro-6-hydroxy-phenyl]-1,1-dioxo-1,2,5-thiadiazolidin-3-one], the EC50 in the test with B16-F10 cells is 10100 nM; with phospho-STAT1 (Tyr701) it was 8600 nM. Besides, the IC50 worked out at 40 nM on PTPN2 [1] and 30 nM at PTPN2 [2].
On the same counts, the results for `O=C1CN(c2c(O)cc(CNc3ccc(-c4ccccc4)nc3)cc2F)S(=O)(=O)N1` [EXAMPLE 6, 5-[2-fluoro-6-hydroxy-4-[[(6-phenyl-3-pyridyl)amino]methyl]phenyl]-1,1-dioxo-1,2,5-thiadiazolidin-3-one] are 4240 nM, 2560 nM, 70 nM and 400 nM.
As for `O=C1CN(c2c(O)cc(CNc3cncc(C(F)(F)F)c3)cc2F)S(=O)(=O)N1` [EXAMPLE 7, 5-[2-fluoro-6-hydroxy-4-[[[5-(trifluoromethyl)-3-pyridyl]amino]methyl]phenyl]-1,1-dioxo-1,2,5-thiadiazolidin-3-one], the EC50 in the test on B16-F10 cells was 3130 nM; with phospho-STAT1 (Tyr701), 2300 nM. The values for the IC50 at PTPN2 [1] and on PTPN2 [2] were 40 nM and 100 nM, respectively.
Taken in the same sequence, the figures for `Cc1nccc(NCc2cc(O)c(N3CC(=O)NS3(=O)=O)c(F)c2)n1` [EXAMPLE 24, 5-[2-fluoro-6-hydroxy-4-[[(2-methylpyrimidin-4-yl)amino]methyl]phenyl]-1,1-dioxo-1,2,5-thiadiazolidin-3-one] were 4280 nM, 790 nM, 30 nM and 30 nM.
On to `O=C1CN(c2c(O)cc(CNc3cncc(Cl)c3)cc2F)S(=O)(=O)N1` [EXAMPLE 8, 5-[4-[[(5-chloro-3-pyridyl)amino]methyl]-2-fluoro-6-hydroxy-phenyl]-1,1-dioxo-1,2,5-thiadiazolidin-3-one], for which the EC50 in the test with B16-F10 cells worked out at 3900 nM; in the test on phospho-STAT1 (Tyr701), 2670 nM. The IC50 at PTPN2 [1] is 20 nM; at PTPN2 [2], 220 nM.
On to `Cc1ncc(NCc2cc(O)c(N3CC(=O)NS3(=O)=O)c(F)c2)nc1C` [EXAMPLE 19, 5-[4-[[(5,6-dimethylpyrazin-2-yl)amino]methyl]-2-fluoro-6-hydroxy-phenyl]-1,1-dioxo-1,2,5-thiadiazolidin-3-one], for which the values for the 50% effective concentration (EC50) in the test on B16-F10 cells and in the test on phospho-STAT1 (Tyr701) were 1240 nM and 370 nM, respectively. The values for the IC50 on PTPN2 [1] and on PTPN2 [2] were 10 nM and 50 nM, respectively.
